Tests used:
[1] = system: MIA PaCa-2 human pancreatic carcinoma; experiment: MIA PaCa-2 CCK-8 proliferation assay; assay type: cell-based; settings: Homo sapiens, MIA PaCa-2, 72 h, MIA PaCa-2 cells
Protocol: The following cancer cell lines were employed: BT-474 human breast carcinoma (ATCC, #HTB-20); MIA PaCa-2 human pancreatic carcinoma [2 copies KRAS(G12C)](ATCC, #CRL-1420); NCI-H23 human non-small cell lung cancer [1 copy KRAS(G12C)](ATCC, #CRL-5800); NCI-H358 human non-small cell lung cancer [1 copy KRAS(G12C)](ATCC, #CRL-5807); LU65A human lung carcinoma (Pharmaron, Beijing, China). Cell lines were cultured essentially according to ATCC and Pharmaron recommendations.
Cancer Cell Line Proliferation (CCK-8) Assays
3-fold serial dilutions of each test compound were prepared ranging from 20 μM to 1.02 nM.
% Inhibition=100−(D−B)/(S−B)*100%. • S: Absorbance of cells treated with DMSO • D: Absorbance of compound-treated cells • B: Absorbance of medium with DMSO without cells

[2] = biological target: T1, HSP90a protein (Homo sapiens, UniProt P07900); experiment: HSP90α-binding fluorescent polarization (FP) assay, BODIPY-labeled RNK04010 probe; settings: FP competition with RNK04010 (BODIPY-labeled), 5 nM, 300 min at 25° C.
T1 construct: purchased BPS Bioscience 50298
Protocol: HSP90α-Binding Fluorescent Polarization (FP) Assay
Binding of test compounds to HSP90a protein was measured by fluorescent polarization (FP) using the HSP90a (N-terminal) Assay Kit (BPS Bioscience, #50298), following the manufacturer's instructions, except as noted. Fluorescently labeled HSP90-binding compounds, either the provided FITC-geldanamycin (5 nM final concentration) or RNK04010, a triazolone-based HSP90 binding small molecule labeled with BODIPY through a piperizine-phenyl linker (5 nM final concentration) were employed. A 2.5-fold serial dilution of each test compound ranging from 20 μM to 5.2 nM was assayed for binding to HSP90a. After the final step of adding HSP90a protein to each assay well, plates were mixed by brief shaking, incubated at 25° C. for 120 min for FITC-geldanamycin or 300 min for RNK04010, and fluorescence was measured using a PerkinElmer EnVision Plate Reader.

SMILES | EC50 [1] | IC50 [2]
C=CC(=O)N1CCN(c2nc(OC[C@@H]3CCN(CCCOCCC(=O)NCc4ccc(-n5c(O)nnc5-c5cc(C(C)C)c(O)cc5O)cc4)C3)nc3c2CCN(c2cccc4cccc(Cl)c24)C3)C[C@@H]1CC#N [Compound 182, 3-(3-((R)-3-(((4-((S)-4-acryloyl-3-(cyanomethyl)piperazin-1-yl)-7-(8-chloronaphthalen-1-yl)-5,6,7,8-tetrahydropyrido[3,4-d]pyrimidin-2-yl)oxy)methyl)pyrrolidin-1-yl)propoxy)-N-(4-(3-(2,4-dihydroxy-5-isopropylphenyl)-5-hydroxy-4H-1,2,4-triazol-4-yl)benzyl)propanamide] | > 1000 nM | < 100 nM
CC(C)c1cc(-c2nnc(O)n2-c2ccc(CN3CCC(C(=O)N4CC[C@@H](COc5nc6c(c(N7CCN(C(=O)C(F)(F)F)[C@@H](CC#N)C7)n5)CCN(c5cccc7cccc(Cl)c57)C6)C4)CC3)cc2)c(O)cc1O [Compound 177, 2-((S)-4-(7-(8-chloronaphthalen-1-yl)-2-(((R)-1-(1-(4-(3-(2,4-dihydroxy-5-isopropylphenyl)-5-hydroxy-4H-1,2,4-triazol-4-yl)benzyl)piperidine-4-carbonyl)pyrrolidin-3-yl)methoxy)-5,6,7,8-tetrahydropyrido[3,4-d]pyrimidin-4-yl)-1-(2,2,2-trifluoroacetyl)piperazin-2-yl)acetonitrile] | – | 100 to 1000 nM
C=CC(=O)N1CCN(c2nc(NCCC(=O)NCc3ccc(CN4CCC(Cc5ccc(-n6c(C(=O)NC(C)C)nnc6-c6cc(C(C)C)c(O)cc6O)cc5)CC4)cc3)nc3c2CCN(c2cc(O)cc4ccccc24)C3)CC1 [Compound 126, 4-(4-((1-(4-((3-((4-(4-acryloylpiperazin-1-yl)-7-(3-hydroxynaphthalen-1-yl)-5,6,7,8-tetrahydropyrido[3,4-d]pyrimidin-2-yl)amino)propanamido)methyl)benzyl)piperidin-4-yl)methyl)phenyl)-5-(2,4-dihydroxy-5-isopropylphenyl)-N-isopropyl-4H-1,2,4-triazole-3-carboxamide, trifluoroacetic acid] | – | 100 to 1000 nM
C=CC(=O)N1CCN(c2nc(OC[C@@H]3CCN(C(=O)C4CCN(Cc5ccc(-n6c(O)nnc6-c6cc(C)c(O)cc6O)cc5)CC4)C3)nc3c2CCN(c2cccc4cccc(Cl)c24)C3)C[C@@H]1CC#N [Compound 180, 2-((S)-1-acryloyl-4-(7-(8-chloronaphthalen-1-yl)-2-(((R)-1-(1-(4-(3-(2,4-dihydroxy-5-methylphenyl)-5-hydroxy-4H-1,2,4-triazol-4-yl)benzyl)piperidine-4-carbonyl)pyrrolidin-3-yl)methoxy)-5,6,7,8-tetrahydropyrido[3,4-d]pyrimidin-4-yl)piperazin-2-yl)acetonitrile] | > 1000 nM | 100 to 1000 nM
C=CC(=O)N1CCN(c2nc(OCC3CCN(C(=O)C4CCN(Cc5ccc(-n6c(O)nnc6-c6cc(C(C)C)c(O)cc6O)cc5)CC4)CC3)nc3c2CCN(c2cccc4cccc(Cl)c24)C3)C[C@@H]1CC#N [Compound 179, (S)-2-(1-acryloyl-4-(7-(8-chloronaphthalen-1-yl)-2-((1-(1-(4-(3-(2,4-dihydroxy-5-isopropylphenyl)-5-hydroxy-4H-1,2,4-triazol-4-yl)benzyl)piperidine-4-carbonyl)piperidin-4-yl)methoxy)-5,6,7,8-tetrahydropyrido[3,4-d]pyrimidin-4-yl)piperazin-2-yl)acetonitrile] | 100 to 1000 nM | < 100 nM
C=CC(=O)N1CCN(c2nc(OC[C@@H]3CN(C(=O)C4CCN(Cc5ccc(-n6c(C(=O)NCC(F)(F)F)nnc6-c6cc(C(C)C)c(O)cc6O)cc5)CC4)CCN3C)nc3c2CCN(c2cccc4cccc(Cl)c24)C3)C[C@@H]1CC#N [Compound 199, 4-(4-((4-((S)-3-(((4-((S)-4-acryloyl-3-(cyanomethyl)piperazin-1-yl)-7-(8-chloronaphthalen-1-yl)-5,6,7,8-tetrahydropyrido[3,4-d]pyrimidin-2-yl)oxy)methyl)-4-methylpiperazine-1-carbonyl)piperidin-1-yl)methyl)phenyl)-5-(2,4-dihydroxy-5-isopropylphenyl)-N-(2,2,2-trifluoroethyl)-4H-1,2,4-triazole-3-carboxamide] | 100 to 1000 nM | < 100 nM
C=CC(=O)N1CCN(c2nc(OC[C@@H]3C[C@@H](NC(=O)C4CCN(Cc5ccc(-n6c(C(=O)NCCN(CC)CC)nnc6-c6cc(C(C)C)c(O)cc6O)cc5)CC4)CN3C)nc3c2CCN(c2cccc4cccc(Cl)c24)C3)C[C@@H]1CC#N [Compound 204, N-((3R,5S)-5-(((4-((S)-4-acryloyl-3-(cyanomethyl)piperazin-1-yl)-7-(8-chloronaphthalen-1-yl)-5,6,7,8-tetrahydropyrido[3,4-d]pyrimidin-2-yl)oxy)methyl)-1-methylpyrrolidin-3-yl)-1-(4-(3-((2-(diethylamino)ethyl)carbamoyl)-5-(2,4-dihydroxy-5-isopropylphenyl)-4H-1,2,4-triazol-4-yl)benzyl)piperidine-4-carboxamide] | > 1000 nM | < 100 nM
C=CC(=O)N1CCN(c2nc(OC[C@@H]3CCN(C(=O)c4ccc5c(c4)CN(C(=O)c4cc(CC)c(O)cc4O)C5)C3)nc3c2CCN(c2cccc4cccc(Cl)c24)C3)C[C@@H]1CC#N [Compound 176, 2-((S)-1-acryloyl-4-(7-(8-chloronaphthalen-1-yl)-2-(((R)-1-(2-(5-ethyl-2,4-dihydroxybenzoyl)isoindoline-5-carbonyl)pyrrolidin-3-yl)methoxy)-5,6,7,8-tetrahydropyrido[3,4-d]pyrimidin-4-yl)piperazin-2-yl)acetonitrile] | – | > 1000 nM
C=CC(=O)N1CCN(c2nc(OC[C@@H]3CC[C@H](C(=O)N4CCN(C(=O)C5CCN(Cc6ccc(-n7c(O)nnc7-c7cc(C(C)C)c(O)cc7O)cc6)CC5)CC4)N3C)nc3c2CCN(c2cccc4cccc(Cl)c24)C3)C[C@@H]1CC#N [Compound 305, 2-[(2S)-4-[7-(8-chloronaphthalen-1-yl)-2-{[(2S,5R)-5-{4-[1-({4-[3-(2,4-dihydroxy-5-isopropylphenyl)-5-hydroxy-1,2,4-triazol-4-yl]phenyl}methyl)piperidine-4-carbonyl]piperazine-1-carbonyl}-1-methylpyrrolidin-2-yl]methoxy}-5H,6H,8H-pyri-do[3,4-d]pyrimidin-4-yl]-1-(prop-2-enoyl)piperazin-2-yl]acetonitrile] | 100 to 1000 nM | < 100 nM
C=CC(=O)N1CCN(c2nc(OC[C@@H]3CCN(C(=O)COc4ccc(Nc5cc(-n6nc(C(F)(F)F)c7c6CC(C)(C)CC7=O)ccc5C(N)=O)cc4)C3)nc3c2CCN(c2cccc4cccc(Cl)c24)C3)C[C@@H]1CC#N [Compound 178, 2-((4-(2-((R)-3-(((4-((S)-4-acryloyl-3-(cyanomethyl)piperazin-1-yl)-7-(8-chloronaphthalen-1-yl)-5,6,7,8-tetrahydropyrido[3,4-d]pyrimidin-2-yl)oxy)methyl)pyrrolidin-1-yl)-2-oxoethoxy)phenyl)amino)-4-(6,6-dimethyl-4-oxo-3-(trifluoromethyl)-4,5,6,7-tetrahydro-1H-indazol-1-yl)benzamide] | > 1000 nM | > 1000 nM
C=CC(=O)N1CCN(c2nc(OC[C@@H]3CCN(C(=O)c4ccc5c(c4)CN(C(=O)c4cc(C(C)C)c(O)cc4O)C5)C3)nc3c2CCN(c2cccc4cccc(Cl)c24)C3)C[C@@H]1CC#N [Compound 175, 2-((S)-1-acryloyl-4-(7-(8-chloronaphthalen-1-yl)-2-(((R)-1-(2-(2,4-dihydroxy-5-isopropylbenzoyl)isoindoline-5-carbonyl)pyrrolidin-3-yl)methoxy)-5,6,7,8-tetrahydropyrido[3,4-d]pyrimidin-4-yl)piperazin-2-yl)acetonitrile] | – | > 1000 nM
C=CC(=O)N1CCN(c2nc(OCC3(CN4CCN(Cc5ccc(-n6c(O)nnc6-c6cc(C(C)C)c(O)cc6O)cc5)CC4)CC3)nc3c2CCN(c2cccc(C)c2C)C3)C[C@@H]1CC#N [Compound 292, 2-[(2S)-4-{2-[(1-{[4-({4-[3-(2,4-dihydroxy-5-isopropylphenyl)-5-hydroxy-1,2,4-triazol-4-yl]phenyl}methyl)piperazin-1-yl]methyl}cyclopropyl)methoxy]-7-(2,3-dimethylphenyl)-5H,6H,8H-pyrido[3,4-d]pyrimidin-4-yl}-1-(prop-2-enoyl)piperazin-2-yl]acetonitrile] | 100 to 1000 nM | –
C=CC(=O)N1CCN(c2nc(OCC3(CN4CCN(Cc5ccc(-n6c(C(=O)NCC)nnc6-c6cc(C(C)C)c(O)cc6O)cc5)CC4)CC3)nc3c2CCN(c2cccc(C)c2C)C3)C[C@@H]1CC#N [Compound 291, 4-(4-{[4-({1-[({4-[(3S)-3-(cyanomethyl)-4-(prop-2-enoyl)piperazin-1-yl]-7-(2,3-dimethylphenyl)-5H,6H,8H-pyrido[3,4-d]pyrimidin-2-yl}oxy)methyl]cyclopropyl}-methyl)piperazin-1-yl]methyl}phenyl)-5-(2,4-dihydroxy-5-isopropylphenyl)-N-et-hyl-1,2,4-triazole-3-carboxamide] | < 100 nM | –
